Target: T1, GLP-1R (Homo sapiens, UniProt P43220)
T1 construct: host or cells: CRE-bla CHO-K1
Experiment: EC20 GLP-1(9-36) PAM cAMP assay: dose response of compound in the presence of fixed concentration of GLP-1(9-36)
Format: cell-based
Details: GLP-1R CRE-bla CHO-K1 cells, compound dose response in presence of fixed concentration of GLP-1(9-36)
Description: EC20 GLP-1(9-36) PAM cAMP Assay: Dose Response of Compound in the Presence of Fixed Concentration of GLP-1 (9-36).
GLP-1R CRE-bla CHO-K1 cells cultured in growth medium (DMEM-High glucose, 10% dialyzed FBS, 0.1 mM NEAA, 25 mM Hepes, 100 U/mL penicillin/100 μg/mL streptomycin, 5 μg/mL Blasticidin, 600 μg/mL Hygromycin) were tryspsinized and plated in suspension into 384 well white flat bottom plates at 5000 cells/well in 12 μL assay buffer (Hanks Balanced Salt solution, 10 mM Hepes, 0.1% BSA, pH 7.4). A 5× compound dose response curve (12-point) was generated in assay buffer containing 1.5 mM IBMX, 12.5% DMSO. GLP-1(9-36) was diluted to 4.2 μM in assay buffer containing 1.5 mM IBMX and 12.5% DMSO. The 5× compound dose response was added (3 μL), followed by 0.5 μL of GLP-1(9-36) and cells were incubated for 30 min at 37° C. Direct detection of cAMP was carried out using DiscoveRx HitHunter cAMP kit according to manufacturer's instructions and luminescence was read using a SpectraMax M5 plate reader. Luminescence was converted to total cAMP using a cAMP standard curve and data was analyzed by non-linear regression to determine the EC50 and Emax.
GLP-1(7-36): […]-NH2. GLP-1(9-36): […]-NH2. GLP-1(7-36) was purchased from GenScript. GLP-1(9-36) was purchased from Biopeptide Co., Inc.

T1 sequence (P43220 24-463): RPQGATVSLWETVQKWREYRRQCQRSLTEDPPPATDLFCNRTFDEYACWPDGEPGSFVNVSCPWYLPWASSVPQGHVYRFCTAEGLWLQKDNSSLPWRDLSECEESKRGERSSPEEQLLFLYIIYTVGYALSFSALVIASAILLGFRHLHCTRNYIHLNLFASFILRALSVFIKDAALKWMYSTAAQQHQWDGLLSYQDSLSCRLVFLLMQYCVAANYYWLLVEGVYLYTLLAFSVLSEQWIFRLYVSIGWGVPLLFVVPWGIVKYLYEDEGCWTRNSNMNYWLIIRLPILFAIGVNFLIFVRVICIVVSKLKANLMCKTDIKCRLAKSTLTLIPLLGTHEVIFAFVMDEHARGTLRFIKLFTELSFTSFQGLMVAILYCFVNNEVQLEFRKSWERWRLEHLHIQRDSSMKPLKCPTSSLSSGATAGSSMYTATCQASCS
T1 sequence (P01275 100-127 partner limits assumed): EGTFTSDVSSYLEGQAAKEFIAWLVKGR

Row | Structure (SMILES) | EC50
1 | CCCCCCCOc1ccc(-c2noc(-c3ccc(C[C@H](NC(=O)c4ccc(C(C)(C)C)cc4)C(=O)O)cc3)n2)cc1 [Compound 1, (S)-2-(4-(tert-butyl)benzamido)-3-(4-(3-(4-(heptyloxy)phenyl)-1,2,4-oxadiazol-5-yl)phenyl)propanoic acid] | 800 to 2500 nM
2 | CCCCCCCOc1ccc(-c2nc(-c3ccc(C[C@H](NC(=O)c4ccc(C(C)(C)C)cc4)C(=O)O)cc3)no2)cc1 [Compound 2, (S)-2-(4-(tert-butyl)benzamido)-3-(4-(5-(4-(heptyloxy)phenyl)-1,2,4-oxadiazol-3-yl)phenyl)propanoic acid] | 2500 to 5000 nM
3 | Cc1ccc(-c2ccc(-c3nc(-c4ccc(C[C@H](NC(=O)c5ccc(C(C)(C)C)cc5)C(=O)O)cc4)no3)cc2)cc1 [Compound 3] | 5000 to 10000 nM
4 | CC(C)(C)c1ccc(C(=O)N[C@@H](Cc2ccc(-c3noc(-c4ccc(-c5ccccc5)cc4)n3)cc2)C(=O)O)cc1 [Compound 4] | 5000 to 10000 nM
5 | CC(C)(C)c1ccc(C(=O)N[C@@H](Cc2ccc(-c3noc(-c4ccc(N5CCCCC5)cc4)n3)cc2)C(=O)O)cc1 [Compound 5] | 2500 to 5000 nM
6 | CC1CCN(c2ccc(-c3nc(-c4ccc(C[C@H](NC(=O)c5ccc(C(C)(C)C)cc5)C(=O)O)cc4)no3)cc2)CC1 [Compound 6] | 5000 to 10000 nM
7 | Cc1ccc(-c2nc(-c3ccc(C[C@H](NC(=O)c4ccc(C(C)(C)C)cc4)C(=O)O)cc3)no2)cc1 [Compound 7] | 5000 to 10000 nM
8 | CC(C)(C)c1ccc(C(=O)N[C@@H](Cc2ccc(-c3noc(-c4ccc(C(C)(C)C)cc4)n3)cc2)C(=O)O)cc1 [Compound 8] | 800 to 2500 nM
9 | COc1cc(C)ccc1-c1nc(-c2ccc(C[C@H](NC(=O)c3ccc(C(C)(C)C)cc3)C(=O)O)cc2)no1 [Compound 9] | 5000 to 10000 nM
10 | CC(C)c1ccc(-c2nc(-c3ccc(C[C@H](NC(=O)c4ccc(C(C)(C)C)cc4)C(=O)O)cc3)no2)cc1 [Compound 10] | 2500 to 5000 nM
11 | CC(C)(C)c1ccc(C(=O)N[C@@H](Cc2ccc(-c3noc(-c4ccc(C(F)(F)F)cc4)n3)cc2)C(=O)O)cc1 [Compound 11] | 800 to 2500 nM
12 | Cc1cccc(-c2ccc(-c3nc(-c4ccc(C[C@H](NC(=O)c5ccc(C(C)(C)C)cc5)C(=O)O)cc4)no3)cc2)c1 [Compound 13] | 800 to 2500 nM
13 | Cc1ccccc1-c1ccc(-c2nc(-c3ccc(C[C@H](NC(=O)c4ccc(C(C)(C)C)cc4)C(=O)O)cc3)no2)cc1 [Compound 14] | 2500 to 5000 nM
14 | COc1ccc(-c2ccc(-c3nc(-c4ccc(C[C@H](NC(=O)c5ccc(C(C)(C)C)cc5)C(=O)O)cc4)no3)cc2)cc1 [Compound 15] | 2500 to 5000 nM
15 | CC(C)(C)c1ccc(C(=O)N[C@@H](Cc2ccc(-c3noc(-c4ccc(-c5ccc(Cl)cc5)cc4)n3)cc2)C(=O)O)cc1 [Compound 16] | 5000 to 10000 nM
16 | CC(C)(C)c1ccc(C(=O)N[C@@H](Cc2ccc(-c3noc(-c4ccc(-c5cccc(Cl)c5)cc4)n3)cc2)C(=O)O)cc1 [Compound 17] | 2500 to 5000 nM
17 | CC(C)(C)c1ccc(C(=O)N[C@@H](Cc2ccc(-c3noc(-c4ccc(-c5ccccc5Cl)cc4)n3)cc2)C(=O)O)cc1 [Compound 18] | 800 to 2500 nM
18 | CC(C)(C)c1ccc(C(=O)N[C@@H](Cc2ccc(-c3noc(-c4ccc(-c5ccccc5F)cc4)n3)cc2)C(=O)O)cc1 [Compound 19] | 800 to 2500 nM
19 | CC(C)(C)c1ccc(C(=O)N[C@@H](Cc2ccc(-c3noc(-c4ccc(-c5cccc(F)c5)cc4)n3)cc2)C(=O)O)cc1 [Compound 20] | 800 to 2500 nM
20 | CC(C)(C)c1ccc(C(=O)N[C@@H](Cc2ccc(-c3noc(-c4ccc(-c5ccc(F)cc5)cc4)n3)cc2)C(=O)O)cc1 [Compound 21] | 2500 to 5000 nM
21 | CC(C)(C)c1ccc(C(=O)N[C@@H](Cc2ccc(-c3noc(-c4ccc(-c5ccc(F)c(F)c5)cc4)n3)cc2)C(=O)O)cc1 [Compound 22] | 2500 to 5000 nM
22 | CC(C)(C)c1ccc(C(=O)N[C@@H](Cc2ccc(-c3noc(-c4ccc(-c5cc(F)ccc5F)cc4)n3)cc2)C(=O)O)cc1 [Compound 23] | 2500 to 5000 nM
23 | CC(C)(C)c1ccc(C(=O)N[C@@H](Cc2ccc(-c3noc(-c4ccc(-c5ccc(F)cc5F)cc4)n3)cc2)C(=O)O)cc1 [Compound 24] | 800 to 2500 nM
24 | COc1ccc(-c2ccc(-c3nc(-c4ccc(C[C@H](NC(=O)c5ccc(C(C)(C)C)cc5)C(=O)O)cc4)no3)cc2)c(OC)c1 [Compound 25] | 800 to 2500 nM
25 | COc1cc(OC)cc(-c2ccc(-c3nc(-c4ccc(C[C@H](NC(=O)c5ccc(C(C)(C)C)cc5)C(=O)O)cc4)no3)cc2)c1 [Compound 26] | 2500 to 5000 nM
26 | COc1cc(C(F)(F)F)ccc1-c1ccc(-c2nc(-c3ccc(C[C@H](NC(=O)c4ccc(C(C)(C)C)cc4)C(=O)O)cc3)no2)cc1 [Compound 27] | 800 to 2500 nM
27 | CC(C)(C)c1ccc(C(=O)N[C@@H](Cc2ccc(-c3noc(-c4ccc(-c5cccc(C#N)c5)cc4)n3)cc2)C(=O)O)cc1 [Compound 28] | 2500 to 5000 nM

Row | Structure (SMILES) | EC50
28 | CC(C)(C)c1ccc(C(=O)N[C@@H](Cc2ccc(-c3noc(-c4ccc(-c5ccc(C#N)cc5)cc4)n3)cc2)C(=O)O)cc1 [Compound 29] | 800 to 2500 nM
29 | COc1ccc(-c2ccc(-c3nc(-c4ccc(C[C@H](NC(=O)c5ccc(C(C)(C)C)cc5)C(=O)O)cc4)no3)cc2)cc1OC [Compound 30] | 800 to 2500 nM
30 | CC(C)(C)c1ccc(C(=O)N[C@@H](Cc2ccc(-c3noc(-c4ccc(-c5ccccc5C#N)cc4)n3)cc2)C(=O)O)cc1 [Compound 31] | 800 to 2500 nM
31 | CC(C)(C)c1ccc(C(=O)N[C@@H](Cc2ccc(-c3noc(-c4ccc(N5CCCCC5)nc4)n3)cc2)C(=O)O)cc1 [Compound 32] | 5000 to 10000 nM
32 | CC(C)Oc1ccc(-c2nc(-c3ccc(C[C@H](NC(=O)c4ccc(C(C)(C)C)cc4)C(=O)O)cc3)no2)cc1 [Compound 33] | 2500 to 5000 nM
33 | CCCOc1ccc(-c2nc(-c3ccc(C[C@H](NC(=O)c4ccc(C(C)(C)C)cc4)C(=O)O)cc3)no2)cc1 [Compound 34] | 2500 to 5000 nM
34 | CC(C)(C)c1ccc(C(=O)N[C@@H](Cc2ccc(-c3noc(-c4ccc(Oc5ccccc5)cc4)n3)cc2)C(=O)O)cc1 [Compound 35] | 2500 to 5000 nM
35 | CC(C)(C)c1ccc(C(=O)N[C@@H](Cc2ccc(-c3noc(-c4ccc(OCc5ccccc5)cc4)n3)cc2)C(=O)O)cc1 [Compound 36] | 2500 to 5000 nM
36 | COc1ccc(-c2nc(-c3ccc(C[C@H](NC(=O)c4ccc(C(C)(C)C)cc4)C(=O)O)cc3)no2)cc1OC [Compound 37] | 2500 to 5000 nM
37 | COc1cc(OC)cc(-c2nc(-c3ccc(C[C@H](NC(=O)c4ccc(C(C)(C)C)cc4)C(=O)O)cc3)no2)c1 [Compound 38] | 800 to 2500 nM
38 | COc1cc(-c2nc(-c3ccc(C[C@H](NC(=O)c4ccc(C(C)(C)C)cc4)C(=O)O)cc3)no2)cc(OC)c1OC [Compound 39] | 800 to 2500 nM
39 | CSc1ccc(-c2nc(-c3ccc(C[C@H](NC(=O)c4ccc(C(C)(C)C)cc4)C(=O)O)cc3)no2)cc1 [Compound 40] | 2500 to 5000 nM
40 | CC(C)(C)c1ccc(C(=O)N[C@@H](Cc2ccc(-c3noc(-c4ccc(S(C)(=O)=O)cc4)n3)cc2)C(=O)O)cc1 [Compound 41] | 2500 to 5000 nM
41 | CCSc1ccc(-c2nc(-c3ccc(C[C@H](NC(=O)c4ccc(C(C)(C)C)cc4)C(=O)O)cc3)no2)cc1 [Compound 42] | 2500 to 5000 nM
42 | CC(C)(C)c1ccc(C(=O)N[C@@H](Cc2ccc(-c3noc(-c4ccc(O)cc4)n3)cc2)C(=O)O)cc1 [Compound 43] | 2500 to 5000 nM
43 | CC(=O)Nc1ccc(-c2nc(-c3ccc(C[C@H](NC(=O)c4ccc(C(C)(C)C)cc4)C(=O)O)cc3)no2)cc1 [Compound 44] | 2500 to 5000 nM
44 | CC(=O)c1ccc(-c2nc(-c3ccc(C[C@H](NC(=O)c4ccc(C(C)(C)C)cc4)C(=O)O)cc3)no2)cc1 [Compound 45] | 800 to 2500 nM
45 | CCCc1ccc(-c2nc(-c3ccc(C[C@H](NC(=O)c4ccc(C(C)(C)C)cc4)C(=O)O)cc3)no2)cc1 [Compound 46] | 800 to 2500 nM
46 | CN(C)c1ccc(-c2nc(-c3ccc(C[C@H](NC(=O)c4ccc(C(C)(C)C)cc4)C(=O)O)cc3)no2)cc1 [Compound 47] | 2500 to 5000 nM
47 | CCN(CC)c1ccc(-c2nc(-c3ccc(C[C@H](NC(=O)c4ccc(C(C)(C)C)cc4)C(=O)O)cc3)no2)cc1 [Compound 48] | 5000 to 10000 nM
48 | Cn1ccc2c(-c3nc(-c4ccc(C[C@H](NC(=O)c5ccc(C(C)(C)C)cc5)C(=O)O)cc4)no3)cccc21 [Compound 49] | 5000 to 10000 nM
49 | Cn1ccc2cc(-c3nc(-c4ccc(C[C@H](NC(=O)c5ccc(C(C)(C)C)cc5)C(=O)O)cc4)no3)ccc21 [Compound 50] | 2500 to 5000 nM
50 | CCCCCCCOc1ccc(-c2nc(-c3ccc(C[C@H](NC(=O)c4ccc(C(C)(C)C)cc4)C(=O)O)cc3)no2)cn1 [Compound 51] | 2500 to 5000 nM
51 | CN1CCCc2c(-c3nc(-c4ccc(C[C@H](NC(=O)c5ccc(C(C)(C)C)cc5)C(=O)O)cc4)no3)cccc21 [Compound 52] | 800 to 2500 nM
52 | CN(C)c1cccc(-c2nc(-c3ccc(C[C@H](NC(=O)c4ccc(C(C)(C)C)cc4)C(=O)O)cc3)no2)c1 [Compound 53] | 2500 to 5000 nM
53 | CC(C)(C)c1ccc(C(=O)N[C@@H](Cc2ccc(-c3noc(-c4ccc(S(N)(=O)=O)cc4)n3)cc2)C(=O)O)cc1 [Compound 54] | 2500 to 5000 nM
54 | CN(CCO)c1ccc(-c2nc(-c3ccc(C[C@H](NC(=O)c4ccc(C(C)(C)C)cc4)C(=O)O)cc3)no2)cc1 [Compound 55] | 2500 to 5000 nM

Reference: patent US8778923B2, “GLP-1 receptor modulators” (Receptos, Inc., priority 2011, dated 2014)
